Patent US20180148418A1, “AMIDO-SUBSTITUTED CYCLOHEXANE DERIVATIVES” (Bayer Pharma Aktiengesellschaft, priority 2015, published 2018)

Experiments:
TNKS2 = molecular target: T1, TNKS2 (Homo sapiens, UniProt Q9H2K2); assay: TNKS2 Assay B (auto-parsylation, [3H]-NAD+ SPA); type: biochemical; conditions: 6 nM TNKS2, auto-parsylation, over night at room temperature
T1 construct: purchased BPS Bioscience, San Diego, USA 80572 (TNKS2 Histone Ribosylation Assay Kit)
T1 sequence (Q9H2K2 1-1166): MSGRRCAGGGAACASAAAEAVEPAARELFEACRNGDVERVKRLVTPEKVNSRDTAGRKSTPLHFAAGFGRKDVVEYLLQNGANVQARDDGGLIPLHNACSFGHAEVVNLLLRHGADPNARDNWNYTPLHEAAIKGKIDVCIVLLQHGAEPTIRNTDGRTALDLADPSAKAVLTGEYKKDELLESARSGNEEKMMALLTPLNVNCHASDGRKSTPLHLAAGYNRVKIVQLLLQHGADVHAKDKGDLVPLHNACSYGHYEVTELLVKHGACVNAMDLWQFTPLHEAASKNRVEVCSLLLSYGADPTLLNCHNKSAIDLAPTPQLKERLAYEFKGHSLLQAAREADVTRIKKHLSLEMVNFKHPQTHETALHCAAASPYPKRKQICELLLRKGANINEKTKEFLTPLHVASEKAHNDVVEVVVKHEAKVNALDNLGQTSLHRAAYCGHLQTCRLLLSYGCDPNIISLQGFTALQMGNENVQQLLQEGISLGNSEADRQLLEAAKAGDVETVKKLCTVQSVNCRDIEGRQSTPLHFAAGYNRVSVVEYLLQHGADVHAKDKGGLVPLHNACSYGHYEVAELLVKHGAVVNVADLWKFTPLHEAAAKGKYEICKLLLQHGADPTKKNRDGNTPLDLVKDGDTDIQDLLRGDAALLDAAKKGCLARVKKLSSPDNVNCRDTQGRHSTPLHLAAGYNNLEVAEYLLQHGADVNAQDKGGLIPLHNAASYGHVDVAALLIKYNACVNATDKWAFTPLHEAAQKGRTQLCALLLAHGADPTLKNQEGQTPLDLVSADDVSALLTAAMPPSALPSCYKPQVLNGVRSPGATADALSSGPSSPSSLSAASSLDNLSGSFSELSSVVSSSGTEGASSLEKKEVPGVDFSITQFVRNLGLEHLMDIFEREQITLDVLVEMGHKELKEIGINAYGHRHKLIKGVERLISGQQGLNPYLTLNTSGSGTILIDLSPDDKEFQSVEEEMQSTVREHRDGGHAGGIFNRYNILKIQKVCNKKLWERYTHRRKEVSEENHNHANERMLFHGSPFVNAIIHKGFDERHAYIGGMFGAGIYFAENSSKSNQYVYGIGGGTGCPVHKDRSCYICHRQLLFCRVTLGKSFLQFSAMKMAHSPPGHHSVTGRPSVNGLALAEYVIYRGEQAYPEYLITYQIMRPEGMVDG

[1] = system: wildtype Wnt signaling cascade; assay: HEK293 TOP assay (Super TopFlash luciferase reporter, Wnt-3a stimulated); type: cell-based; conditions: Homo sapiens, HEK293, 16 h, HEK293 TOP reporter cells, Wnt3a at EC50, 16 hours
In short: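 HEK293 cells stably carrying Super TopFlash (TOP) run in parallel with FOP cells, 10000/well plated 24 h ahead, stimulated with recombinant human Wnt-3a. Compounds tested 50 μM to 15 nM in 3.16-fold steps in CAFTY buffer pH 7.4 with 2 mM Ca^2+ and 0.01% BSA; luciferase read-out.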

| SMILES | IC50 (TNKS2) [nM] | IC50 [1] [nM] |
| --- | --- | --- |
| CNC(=O)c1[nH]cnc1C(=O)N[C@@H]1CC[C@@H](C(=O)Nc2ccc(F)cc2Cl)C[C@@H]1F (racemic) [Example 31, N^4-{(1α,2α,4β)-4-[(2-chloro-4-fluorophenyl)carbamoyl]-2-fluorocyclohexyl}-N^5-methyl-1H-imidazole-4,5-dicarboxamide] | 120 | 250 |
| CNC(=O)c1[nH]cnc1C(=O)N[C@@H]1CC[C@@H](C(=O)Nc2ccc(F)cc2Cl)C[C@H]1OC (racemic) [Example 35, N^4-{(1α,2β,4β)-4-[(2-chloro-4-fluorophenyl)carbamoyl]-2-methoxycyclohexyl}-N^5-methyl-1H-imidazole-4,5-dicarboxamide] | > 10000 | 17000 |
| CNC(=O)c1[nH]cnc1C(=O)N[C@H]1CC[C@H](C(=O)Nc2ccc(F)cc2Cl)CC1(F)F (single isomer, unassigned) [Example 33, N^4-{(trans)-4-[(2-chloro-4-fluorophenyl)carbamoyl]-2,2-difluorocyclohexyl}-N^5-methyl-1H-imidazole-4,5-dicarboxamide] | 380 | 700 |
| CNC(=O)c1[nH]cnc1C(=O)NC1CCC(C(=O)Nc2ccc(F)cc2Cl)CC1C (single isomer, unassigned) [Example 41, N^4-{4-[(2-chloro-4-fluorophenyl)carbamoyl]-2-methylcyclohexyl}-N^5-methyl-1H-imidazole-4,5-dicarboxamide] | > 10000 | 21000 |
| O=C(NC1CCC(F)(C(=O)Nc2ccc(F)cc2Cl)CC1)c1cnn2cccnc12 (single isomer, unassigned) [Example 365, N-{4-[(2-chloro-4-fluorophenyl)carbamoyl]-4-fluorocyclohexyl}pyrazolo[1,5-a]pyrimidine-3-carboxamide (single isomer)] | > 10000 | 21000 |
| CNC(=O)c1[nH]cnc1C(=O)NC1CCC(F)(C(=O)Nc2ccc(F)cc2Cl)CC1 (single isomer, unassigned) [Example 366, N^4-{4-[(2-chloro-4-fluorophenyl)carbamoyl]-4-fluorocyclohexyl}-N^5-methyl-1H-imidazole-4,5-dicarboxamide (single isomer)] | > 10000 | 25000 |
| CNC(=O)c1[nH]cnc1C(=O)N[C@@H]1CC[C@@H](C(=O)Nc2ccc(F)cc2Cl)CC1(F)F (stereo in doubt) [Example 32, N^4-{(trans)-4-[(2-chloro-4-fluorophenyl)carbamoyl]-2,2-difluorocyclohexyl}-N^5-methyl-1H-imidazole-4,5-dicarboxamide] | 280 | 270 |
| O=C(NCC1CCCO1)c1nc[nH]c1C(=O)N[C@H]1CC[C@H](C(=O)Nc2c(F)cc(F)cc2Cl)CC1 (stereo in doubt) [Example 71, N^5-{trans-4-[(2-chloro-4,6-difluorophenyl)carbamoyl]cyclohexyl}-N^4-[(2R)-tetrahydrofuran-2-ylmethyl]-1H-imidazole-4,5-dicarboxamide] | 66 | 100 |
| CNC(=O)c1nc[nH]c1C(=O)N[C@H]1CC[C@H](C(=O)Nc2ccc(F)cc2Cl)CC1 [Example 1, N^5-{trans-4-[(2-chloro-4-fluorophenyl)carbamoyl]cyclohexyl}-N^4-methyl-1H-imidazole-4,5-dicarboxamide] | 72 | 52 |
| O=C(N[C@H]1CC[C@H](C(=O)Nc2ccc(F)cc2Cl)CC1)c1[nH]cnc1C(=O)N1CC2(CCS2(=O)=O)C1 [Example 22, N-{trans-4-[(2-chloro-4-fluorophenyl)carbamoyl]cyclohexyl}-4-[(1,1-dioxido-1-thia-6-azaspiro[3.3]hept-6-yl)carbonyl]-1H-imidazole-5-carboxamide] | 5.3 | 24 |
| O=C(N[C@H]1CC[C@H](C(=O)Nc2ccc(F)cc2Cl)CC1)c1[nH]cnc1C(=O)N1CCC1 [Example 23, 4-(azetidin-1-ylcarbonyl)-N-{trans-4-[(2-chloro-4-fluorophenyl)carbamoyl]cyclohexyl}-1H-imidazole-5-carboxamide] | 25 | 110 |
| COC1CN(C(=O)c2nc[nH]c2C(=O)N[C@H]2CC[C@H](C(=O)Nc3ccc(F)cc3Cl)CC2)C1 [Example 24, 4 N-{trans-4-[(2-chloro-4-fluorophenyl)carbamoyl]cyclohexyl}-4-[(3-methoxyazetidin-1-yl)carbonyl]-1H-imidazole-5-carboxamide] | 17 | 86 |
| O=C(NCCN1CC2(CCO2)C1)c1nc[nH]c1C(=O)N[C@H]1CC[C@H](C(=O)Nc2ccc(F)cc2Cl)CC1 [Example 25, N^5-{trans-4-[(2-chloro-4-fluorophenyl)carbamoyl]cyclohexyl}-N^4-[2-(1-oxa-6-azaspiro[3.3]hept-6-yl)ethyl]-1H-imidazole-4,5-dicarboxamide] | 11 | 63 |
| CN(C)C1CN(C(=O)c2nc[nH]c2C(=O)N[C@H]2CC[C@H](C(=O)Nc3ccc(F)cc3Cl)CC2)C1 [Example 26, N-{trans-4-[(2-chloro-4-fluorophenyl)carbamoyl]cyclohexyl}-4-{[3-(dimethylamino)azetidin-1-yl]carbonyl}-1H-imidazole-5-carboxamide] | 80 | 140 |
| CNC(=O)c1nc[nH]c1C(=O)N[C@H]1CC[C@H](C(=O)Nc2c(Br)cc(F)c(F)c2F)CC1 [Example 27, N^5-{trans-4-[(6-bromo-2,3,4-trifluorophenyl)carbamoyl]cyclohexyl}-N^4-methyl-1H-imidazole-4,5-dicarboxamide] | 19 | 35 |
| CNC(=O)c1nc[nH]c1C(=O)N[C@H]1CC[C@H](C(=O)Nc2c(F)cc(F)cc2Br)CC1 [Example 28, N^5-{trans-4-[(6-bromo-2,4-difluorophenyl)carbamoyl]cyclohexyl}-N^4-methyl-1H-imidazole-4,5-dicarboxamide] | 26 | 24 |
| CNC(=O)c1ncoc1C(=O)N[C@H]1CC[C@H](C(=O)Nc2ccc(F)cc2Cl)CC1 [Example 29, N^5-{trans-4-[(2-chloro-4-fluorophenyl)carbamoyl]cyclohexyl}-N^4-methyl-1,3-oxazole-4,5-dicarboxamide] | 590 | 930 |
| CNC(=O)c1ocnc1C(=O)N[C@H]1CC[C@H](C(=O)Nc2ccc(F)cc2Cl)CC1 [Example 30] | > 10000 | 44000 |
| Cc1cc(C)n2ncc(C(=O)NC3CCC(C(=O)Nc4ccc(F)cc4Cl)CC3C)c2n1 (stereo not shown) [Example 42, N-{4-[(2-chloro-4-fluorophenyl)carbamoyl]-2-methylcyclohexyl}-5,7-dimethylpyrazolo[1,5-a]pyrimidine-3-carboxamide] | 120 | 120 |
| O=C(N[C@H]1CC[C@H](C(=O)Nc2ccc(F)cc2Cl)CC1)c1cnn2cccnc12 [Example 43, N-{trans-4-[(2-chloro-4-fluorophenyl)carbamoyl]cyclohexyl}pyrazolo[1,5-a]pyrimidine-3-carboxamide] | 74 | 130 |
| Cc1cc(C)n2ncc(C(=O)N[C@H]3CC[C@H](C(=O)Nc4ccc(F)cc4Cl)CC3)c2n1 [Example 44, N-{trans-4-[(2-chloro-4-fluorophenyl)carbamoyl]cyclohexyl}-5,7-dimethylpyrazolo[1,5-a]pyrimidine-3-carboxamide] | 150 | 81 |
| O=C(N[C@H]1CC[C@H](C(=O)Nc2ccc(F)cc2Cl)CC1)c1cnc2cccnn12 [Example 45, N-{trans-4-[(2-chloro-4-fluorophenyl)carbamoyl]cyclohexyl}imidazo[1,2-b]pyridazine-3-carboxamide] | 130 | 160 |
| CC(=O)c1cnc2c(C(=O)N[C@H]3CC[C@H](C(=O)Nc4ccc(F)cc4Cl)CC3)cnn2c1C [Example 46, 6-acetyl-N-{trans-4-[(2-chloro-4-fluorophenyl)carbamoyl]cyclohexyl}-7-methylpyrazolo[1,5-a]pyrimidine-3-carboxamide] | 25 | 97 |
